Results taken from patent publication US12408666B2, “Pyridyloxy carboxylate derivative, preparation method therefor, herbicidal composition and use thereof” (priority 2018, dated 2025).

What was measured:
Monochoria vaginalis = assay: Weed control effect evaluation in rice field; format: in vivo; conditions: paddy pot, 50 g/ha, 14 days after treatment, resistant to pyrazosulfuron-ethyl and penoxsulam
Procedure: Rice field soil was loaded into a 1/1,000,000 ha pot. The seeds of Monochoria vaginalis were sowed and gently covered with soil, then left to stand still in greenhouse in the state of 0.5-1 cm of water storage. It was kept at 3-4 cm of water storage thereafter. The weeds were treated by dripping the WP or SC water diluents prepared according to the common preparation method of the compounds of the present invention with pipette homogeneously to achieve specified effective amount when Monochoria vaginalis reached 0.5 leaf stage.
The fertility condition of Monochoria vaginalis 14 days and rice 21 days after the treatment of the compound of the invention with the naked eye.
Note: The seeds of Monochoria vaginalis were collected from Heilongjing Province of China.

Soybean = assay: Spray drift test by unmanned gyroplane, neighbouring soybean field; format: in vivo; conditions: 600 g/ha applied by unmanned gyroplane, soybean field at 10 meters, gentle breeze
Procedure: Broadleaf crops are very sensitive to hormonal herbicides, therefore crop injuries are more likely to occur in case of spray drifting. Tests were conducted in gentle breeze for the compounds of the present invention. The formulation of the compounds of the present invention was applied by DJI unmanned gyroplane with application height of 1 m and water volume of 20 kg/ha. The use rate was 600 g/ha. The active ingredient was dissolved by acetone and diluted to aqueous solution of Tween 80. There's a soybean field at 10 meters from the application area and the height of soybean plants were about 15 cm at the application time.

[1] = tested on: Echinochloa crusgalli, Digitaria sanguinalis, Leptochloa chinensis and Setaria viridis; conditions: commercial product; cited from earlier work
Japonica rice = assay: Post-emergence test, crop safety (Table 4); format: in vivo; conditions: 3 weeks after treatment
Procedure: (§1) Post-emergence test experiment: Monocotyledonous and dicotyledonous weed seeds and main crop seeds (i. e. wheat, corn, rice, soybean, cotton, oilseed, millet and sorghum.) were put into a plastic pot loaded with soil. Then covered with 0.5-2 cm soil, the seeds were allowed to grow in good greenhouse environment. The test plants were treated at 2-3 leaf stage 2 weeks after sowing. The test compounds of the invention were dissolved with acetone respectively, then added with tween-80, and using 1.5 liters per hectare of an emulsible concentrate of methyl oleate as a synergist, and diluted by certain amount of water to certain concentration. The solution was sprayed to the plants with a sprayer. Then the plants were cultured for 3 weeks in the greenhouse, and the experiment result of weed controlling effect after 3 weeks was listed in tables 3-4.
(§2) […] Echinochloa crusgalli and Cyperus iria were collected from Hunan province of China, and were resistant to ALS inhibitor herbicides.

Indica rice = assay: Post-emergence test, crop safety (Table 4); format: in vivo; conditions: 3 weeks after treatment
Procedure: as §1, §2

Echinochloa crusgalli = assay: Post-emergence test, ALS-resistant weed (Table 4); format: in vivo; conditions: Echinochloa crus-galli, 504 h, 3 weeks, resistant to ALS inhibitor herbicides, read-out: Echinochloa crusgalli, activity level (growth inhibition rate)
Procedure: as §1
(§3) Note: the application dose was active ingredient 600 g/ha, plus water 450 kg/ha. Echinochloa crusgalli and Cyperus iria were collected from Hunan province of China, and were resistant to ALS inhibitor herbicides.

Cyperus iria = assay: Post-emergence test, ALS-resistant weed (Table 4); format: in vivo; conditions: 504 h, 3 weeks, resistant to ALS inhibitor herbicides, read-out: Cyperus iria, activity level (growth inhibition rate)
Procedure: as §1, §3

rice = conditions: known compound; cited from earlier work

## COc1cnc(OC)n2nc(NS(=O)(=O)c3c(OCC(F)F)cccc3C(F)(F)F)nc12 [Penoxsulam]
Monochoria vaginalis
  Monochoria Vaginalis, activity level: 1 (Level 1: the growth inhibition rate is equal to or greater than 5% and less than 20%)

## CCOC(=O)C(C)Oc1nc(F)c(Cl)c(N)c1Cl (centres unmarked) [Control compound C]
Soybean
  Soybean, injury level from spray drift: 3 (Level 3: the growth inhibition rate is equal to or greater than 40% and less than 60%)

## CCCCOCC(C)OC(=O)COc1nc(F)c(Cl)c(N)c1Cl (centres unmarked) [Control compound B]
[1]
  Efficacy on key grasses in rice: very poor
Japonica rice; 600 g/ha
  Japonica rice, activity level (growth inhibition rate): 2 (Level 2: the growth inhibition rate is equal to or greater than 20% and less than 40%)
Indica rice; 600 g/ha
  Indica rice, activity level (growth inhibition rate): 2 (Level 2: the growth inhibition rate is equal to or greater than 20% and less than 40%)
Echinochloa crusgalli
  inhibition at 600 g/ha: 20 to 40%
Cyperus iria
  inhibition at 600 g/ha: 40 to 60%

## CC(Oc1nc(F)c(Cl)c(N)c1Cl)C(=O)O (centres unmarked) [Control compound A]
rice
  Safety and selectivity: poor safety and low selectivity
Japonica rice; 300 g/ha
  Japonica rice, activity level (growth inhibition rate): 2 (Level 2: the growth inhibition rate is equal to or greater than 20% and less than 40%)
Japonica rice; 600 g/ha
  Japonica rice, activity level (growth inhibition rate): 3 (Level 3: the growth inhibition rate is equal to or greater than 40% and less than 60%)
Indica rice; 300 g/ha
  Indica rice, activity level (growth inhibition rate): 3 (Level 3: the growth inhibition rate is equal to or greater than 40% and less than 60%)
Indica rice; 600 g/ha
  Indica rice, activity level (growth inhibition rate): 3 (Level 3: the growth inhibition rate is equal to or greater than 40% and less than 60%)
Echinochloa crusgalli; 300 g/ha
  inhibition at 300 g/ha: 60 to 85%
Echinochloa crusgalli
  inhibition at 600 g/ha: > 85%
Cyperus iria; 300 g/ha
  inhibition at 300 g/ha: 60 to 85%
Cyperus iria
  inhibition at 600 g/ha: > 85%

## COc1cc(OC)nc(Oc2cccc(Oc3nc(OC)cc(OC)n3)c2C(=O)O)n1 [Bispyribac-sodium]
Japonica rice; 100 g/ha
  Japonica rice, activity level (growth inhibition rate): 4 (Level 4: the growth inhibition rate is equal to or greater than 60% and less than 85%)
Indica rice; 100 g/ha
  Indica rice, activity level (growth inhibition rate): 2 (Level 2: the growth inhibition rate is equal to or greater than 20% and less than 40%)
Echinochloa crusgalli; 100 g/ha
  inhibition at 100 g/ha: 5 to 20%
Cyperus iria; 100 g/ha
  inhibition at 100 g/ha: 20 to 40%
